Test results published in publication PMC5724825, “Structure-activity studies of Mdm2/Mdm4-binding stapled peptides comprising non-natural amino acids” (PLoS ONE, 2017).
Each block holds one molecule with its values, some of them ahead of it. Bridge positions count the residues as written; N and C are the ends. Square brackets hold non-standard residues; d marks the D form. Trp(6-Cl) = N[C@@H](Cc1c[nH]c2cc(Cl)ccc12)C(=O)O; Trp(6-Me) = Cc1ccc2c(C[C@H](N)C(=O)O)c[nH]c2c1; S8 = C=CCCCCCC[C@](C)(N)C(=O)O; S5 = C=CCCC[C@](C)(N)C(=O)O; FAM = carboxyfluorescein

Columns and labels:
[1] = target: T1, Mdm4-L98V (amino acids 1–108) (Homo sapiens, UniProt O15151, L98V); assay: Competitive fluorescence anisotropy, Mdm4-L98V; format: binding; settings: from Table 2
T1 construct: Mdm4 and Mdm4-L98V (amino acids 1–108) were cloned with C-terminal 6xHIS tags; made in house; host or cells: Escherichia coli BL21(DE3)
T1 sequence (O15151 1-108 L98V): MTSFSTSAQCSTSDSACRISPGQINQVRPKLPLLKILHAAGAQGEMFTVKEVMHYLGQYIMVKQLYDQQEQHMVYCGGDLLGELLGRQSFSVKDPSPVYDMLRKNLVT
Description: (§1) Mdm4 and Mdm4-L98V (amino acids 1–108) were cloned with C-terminal 6xHIS tags. The constructs were then transformed into Escherichia coli BL21(DE3) (Invitrogen) competent cells. Cells were grown in LB medium at 37°C and induced at OD600 nm of 0.6 at 25°C with 0.25 mM IPTG and at 16°C with 1 mM IPTG for Mdm4-WT and Mdm4-L98V respectively. After overnight induction, the cells were harvested by centrifugation, resuspended in His-binding buffer (50 mM Bis-Tris pH 6.5, 1M NaCl, 20 mM imidazole, 0.5 mM DTT), and lysed by sonication. After centrifugation for 60 mins at 19,000 × g at 4°C, the cell lysate was then applied to a 1 mL HisTrap FF column (GE Healthcare) pre-equilibrated in His-binding buffer, washed and eluted off the column with His-elution buffer (50 mM Bis-Tris pH 6.5, 1M NaCl, 500 mM imidazole, 0.5 mM DTT) with a gradient elution of 35% elution buffer in 5 column volumes, followed by 35% to 100% elution buffer over 80 column volumes. Protein purity as assessed by SDS-PAGE was ~ 90%, and the fractions were pooled and buffer exchanged into 50 mM Bis-Tris pH 6.5, 350 mM NaCl, 1 mM DTT. The proteins were then concentrated using Amicon-Ultra (3 kDa MWCO) concentrator (Millipore).
(§2) Fluorescence anisotropy assays were performed as previously described. Titrations of purified Mdm2/Mdm4 proteins were incubated with 50 nM of carboxyfluorescein (FAM) labelled 12–1 peptide (FAM-[…]-NH2) to initially determine the dissociation constants for the peptide-protein interactions. Apparent Kds of peptides were next determined by competitive fluorescence anisotropy. Titrations of peptides were carried out at constant concentrations of Mdm2/Mdm2-M62A/Mdm4 (150 nM), Mdm4-L98V (250 nM) and labelled peptide (50 nM). Anisotropy measurements were carried out using the Envision Multilabel Reader (PerkinElmer). All experiments were carried out in PBS (2.7 mM KCl, 137 mM NaCl, 10 mM Na2HPO4 and 2 mM KH2PO4, pH 7.4), 4% DMSO and 0.1% Tween-20 buffer. All titrations were carried out in duplicate (3–6 repeats). Curve fitting was carried out using Prism (GraphPad).

[2] = target: T2, Mdm2 (amino acids 6–125) (Homo sapiens, UniProt Q00987); assay: Competitive fluorescence anisotropy, Mdm2; format: binding; set-up: Mdm2 (amino acids 6–125) was cloned as a GST-fusion protein; GST (N, cleaved yes); made in house; host or cells: Escherichia coli BL21(DE3) pLysS; settings: from Table 2
[3] = target: T3, Mdm4 (amino acids 1–108) (Homo sapiens, UniProt O15151); assay: Competitive fluorescence anisotropy, Mdm4; format: binding; settings: from Table 2
T3 construct: Mdm4 and Mdm4-L98V (amino acids 1–108) were cloned with C-terminal 6xHIS tags; made in house; host or cells: Escherichia coli BL21(DE3)
T3 sequence (O15151 1-108): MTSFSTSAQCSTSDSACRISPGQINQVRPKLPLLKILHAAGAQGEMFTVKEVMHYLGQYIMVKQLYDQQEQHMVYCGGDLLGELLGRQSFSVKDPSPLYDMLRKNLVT
Description: as §1, §2

[4] = target: T2, Mdm2 (amino acids 6–125); set-up: Mdm2 (amino acids 6–125) was cloned as a GST-fusion protein; GST (N, cleaved yes); made in house; host or cells: Escherichia coli BL21(DE3) pLysS; settings: earlier series; cited from earlier work
Description: In common with all reported high-affinity binders, these peptides incorporate a signature p53-derived interacting motif comprising F, W and L residues that respectively dock into discrete hydrophobic pockets in the N-terminal domain of Mdm2 [13]. […] The ...

[5] = system: p53 transactivation in T22 cells; assay: p53 reporter assay in T22 cells (β galactosidase); format: cell-based; settings: 5, 10, 20 μM peptide, 18 hours, DMEM with 10% FBS
Description: Dulbecco’s Minimal Eagle Medium (DMEM) with 10% fetal bovine serum (FBS) and penicillin/streptomycin was used to maintain cells. T22 cells stably transfected with a p53 responsive β galactosidase reporter, were seeded into 96-well plates (8000 cells per well). 24 hours later, cells were treated with compounds/peptide for 18 hours in DMEM with 10% FBS. β galactosidase activity was measured using the FluoReporter LacZ/Galactosidase Quantitation kit (Invitrogen). Measurements were carried out on a Safire II multiplate reader (TECAN). All experiments were carried out in duplicate.
Fig 4 T22 reporter assay measuring p53 transactivation. A. Cells were treated with increasing concentrations (5, 10, 20 μM) of indicated peptide ligands and p53 activity determined by measuring β galactosidase levels. The small molecule Mdm2 inhibitor Nutlin (10 μM) was used as positive control. Activity is expressed as fold increase over cells treated with DMSO vehicle only. Values represent average ± SD (n = 2). * p < 0.001 compared to DMSO control. B. Lactate dehydrogenase release assay indicating no significant membrane disruption observed for increasing concentrations (2, 10, 20 μM) of indicated ligands compared to vehicle (DMSO) and positive maximum lysis control (MLC). Values represent average ± SD (n = 3).

[6] = system: activation of the p53 tumour suppressor; settings: earlier series; cited from earlier work
Description: We have previously described a series of peptide antagonists targeting Mdm2, a key regulator of p53 function. In common with all reported high-affinity binders, these peptides incorporate a signature p53-derived interacting motif comprising F, W and L residues that respectively dock into discrete hydrophobic pockets in the N-terminal domain of Mdm2 [13]. This series exemplified significant enhancements in binding affinity, cellular uptake and activity arising from incorporation of a hydrocarbon tether and replacement of the tryptophan with the non-natural L-6-chlorotryptophan. The ...

[7] = target: T4, Mdm4-L98V (amino acids 1–108) (UniProt O15151 1-108, L98V); assay: fluorescence polarisation; competitive fluorescence anisotropy, apparent Kd; peptides titrated at constant Mdm2/Mdm2-M62A/Mdm4 (150 nM) or Mdm4-L98V (250 nM) and FAM-labelled 12-1 peptide (50 nM); PBS pH 7.4, 4% DMSO, 0.1% Tween-20; settings: both partners purified
T4 construct: Mdm4 (also known as MdmX), amino acids 1-108, with L98V; also called L98V mutant; source: E. coli BL21(DE3), purified (HisTrap FF)
T4 sequence (looked up): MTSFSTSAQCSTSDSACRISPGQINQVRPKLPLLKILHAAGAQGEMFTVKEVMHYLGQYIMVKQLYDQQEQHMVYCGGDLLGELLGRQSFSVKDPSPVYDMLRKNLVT

[8] = target: T5, Mdm4 (amino acids 1–108) (UniProt O15151 1-108); assay: as above; settings: both partners purified
T5 construct: Mdm4 (also known as MdmX), amino acids 1-108; also called Mdm4-WT; MdmX; source: E. coli BL21(DE3), purified (HisTrap FF)
T5 sequence (looked up): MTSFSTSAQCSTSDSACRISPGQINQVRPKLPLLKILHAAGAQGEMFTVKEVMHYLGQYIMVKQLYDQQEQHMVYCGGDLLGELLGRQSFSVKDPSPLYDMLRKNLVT

[9] = target: T4, Mdm4-L98V (amino acids 1–108); assay: as above; settings: both partners purified; remark: listed apart in the source
[10] = target: T5, Mdm4 (amino acids 1–108); assay: as above; settings: both partners purified; remark: listed apart in the source
[11] = target: T6, Mdm2 (amino acids 6–125) (UniProt Q00987 6-125); assay: as above; settings: both partners purified
T6 construct: Cloned in pGEX-6P-1; also called Mdm2 N-terminal domain; source: E. coli BL21(DE3) pLysS, purified (GSTrap, on-column PreScission cleavage, Resource S cation exchange)

[12] = target: T7, Mdm2-M62A (amino acids 6–125) (UniProt Q00987 6-125, M62A); assay: as above; settings: both partners purified
T7 construct: Cloned in pGEX-6P-1; source: E. coli BL21(DE3) pLysS, purified (GSTrap, on-column PreScission cleavage, Resource S cation exchange)

Molecule: CC(=O)N[C@H](C(=O)N[C@@H](CO)C(=O)N[C@@H](Cc1ccccc1)C(=O)N[C@]1(C)CCCCCCC=CCCC[C@@](C)(C(N)=O)NC(=O)[C@H](CC(C)C)NC(=O)[C@H](CC(C)C)NC(=O)[C@H](C)NC(=O)[C@H](Cc2c[nH]c3ccccc23)NC(=O)[C@H](Cc2ccc(O)cc2)NC(=O)[C@H](CCC(=O)O)NC1=O)[C@@H](C)O [PM2]
Increase in binding affinity to Mdm4-L98V over binding to Mdm4 [1]: ~ 1.4 fold

Molecule: CC(=O)N[C@H](C(=O)N[C@@H](CO)C(=O)N[C@@H](Cc1ccccc1)C(=O)N[C@]1(C)CCCCCCC=CCCC[C@@](C)(C(=O)N[C@@H](CO)C(=O)N[C@@H](C)C(=O)N[C@@H](C)C(N)=O)NC(=O)[C@H](CC(C)C)NC(=O)[C@H](CC(C)C)NC(=O)[C@H](C)NC(=O)[C@H](Cc2c[nH]c3cc(Cl)ccc23)NC(=O)[C@H](Cc2ccc(O)cc2)NC(=O)[C@H](CCC(=O)O)NC1=O)[C@@H](C)O [VIP160]
Change in affinity for Mdm2 versus M011 [2]: no change in affinity for Mdm2
Improved binding to Mdm4 versus M011 [3]: ~ 1.7 fold
Increase in binding affinity to Mdm4-L98V over binding to Mdm4 [1]: ~ 2.5 fold

Molecule: CC(=O)N[C@H](C(=O)N[C@@H](CO)C(=O)N[C@@H](Cc1ccccc1)C(=O)N[C@]1(C)CCCCCCC=CCCC[C@@](C)(C(N)=O)NC(=O)[C@H](CC(C)C)NC(=O)[C@H](CC(C)C)NC(=O)[C@H](C)NC(=O)[C@H](Cc2c[nH]c3cc(Cl)ccc23)NC(=O)[C@H](Cc2ccc(O)cc2)NC(=O)[C@H](CCC(=O)O)NC1=O)[C@@H](C)O [M011]
Increase in Mdm2 binding affinity over the parental peptide [4]: ~ 7 fold
More active than M012 in T22 p53 reporter assay [5]: ~ 20%
Increased Mdm2 binding affinity over parental stapled peptide lacking the 6-chloro modification (PM2) [2]: ~ 8 fold
Binding to Mdm2 over Mdm4 (affinity for Mdm4 reduced compared to Mdm2) [3]: ~ 50 fold
Reduced binding to Mdm4 compared to PM2 [3]: ~ 3 fold
Enhanced cellular activity over the parental peptide [6]: ~ 59 fold
Increase in binding affinity to Mdm4-L98V over binding to Mdm4 [1]: ~ 4.6 fold

B2: PM2 stapled peptide (peptide)
chain: TSFXEYWALLL
modifications: not fully specified; N-terminus acetylated; C-terminus amidated; (S)-2-(4′pentenyl) alanine at position 4 and (S)-2-(7′-octenyl) alanine at position 11, fused via olefin metathesis (i, i+7 hydrocarbon linkage)
Kd [7]: 72.3 nM
Kd [8]: 101 nM

B3: M011 stapled peptide (peptide)
chain: TSFXEYWALLL
modifications: not fully specified; N-terminus acetylated; C-terminus amidated; L-6-chlorotryptophan at W23 (p53 numbering); (S)-2-(4′pentenyl) alanine at position 4 and (S)-2-(7′-octenyl) alanine at position 11, fused via olefin metathesis (i, i+7 hydrocarbon linkage)
Kd [7]: 72.3 nM
Kd [8]: 335 nM

Next, values leading:

Reduced binding to Mdm2 of pre-stapled peptide compared to M011 [2]: ~ 20 fold
Reduced binding to Mdm4 of pre-stapled peptide compared to M011 [3]: ~ 4 fold
Molecule: C=CCCCCCC[C@@](C)(NC(=O)[C@H](Cc1ccccc1)NC(=O)[C@H](CO)NC(=O)[C@@H](NC(C)=O)[C@@H](C)O)C(=O)N[C@@H](CCC(=O)O)C(=O)N[C@@H](Cc1ccc(O)cc1)C(=O)N[C@@H](Cc1c[nH]c2cc(Cl)ccc12)C(=O)N[C@@H](C)C(=O)N[C@@H](CC(C)C)C(=O)N[C@@H](CC(C)C)C(=O)N[C@@](C)(CCCC=C)C(N)=O [M011-L]

Kd [7]: 594 nM
Kd [8]: 1390 nM
Molecule: Ac-TSF[S5]EY[Trp(6-Cl)]ALL[S8]-NH2 (bridges not given here) [M011-L, linear precursor of M011]

binding result [9]: binds
binding result [10]: binds
binding result [11]: binds
binding result [12]: binds
B1: carboxyfluorescein (FAM) labelled 12–1 peptide (peptide)
peptide: {FAM}-RFMDYWEGL-NH2
notes: 12-1 peptide, tracer of the fluorescence anisotropy assays; also called labelled peptide; source: synthetic peptide

Kd [7]: 385 nM
Molecule: Ac-TSF[S5]EY[Trp(6-Me)]ALL[S8]-NH2 (staple 4-11; also: Trp(6-Me) D/L mixture, not separated) [M012 stapled peptide]

Kd [7]: 165 nM
Kd [8]: 411 nM
Molecule: Ac-TSF[S5]EY[Trp(6-Me)]ALL[S8]-NH2 (bridges not given here; also: Trp(6-Me) not enantiomerically pure) [M012-L, linear precursor of M012]
